From article PMC8931335 (Proceedings of the National Academy of Sciences of the …, 2022)

Biological target: T1, MOR42-3 (Mus musculus, UniProt E9PX47)
T1 sequence (E9PX47 1-334): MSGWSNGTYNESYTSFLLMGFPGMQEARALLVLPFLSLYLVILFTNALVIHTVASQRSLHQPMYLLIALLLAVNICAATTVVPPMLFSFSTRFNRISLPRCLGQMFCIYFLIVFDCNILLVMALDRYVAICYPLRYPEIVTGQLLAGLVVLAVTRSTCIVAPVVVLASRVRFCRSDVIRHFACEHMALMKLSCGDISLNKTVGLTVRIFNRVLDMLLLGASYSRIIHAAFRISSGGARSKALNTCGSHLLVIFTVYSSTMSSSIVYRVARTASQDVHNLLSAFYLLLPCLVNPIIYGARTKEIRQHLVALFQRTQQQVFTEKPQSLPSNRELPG
Assay: CRE luciferase reporter assay in Hana3A cells
Type: cell-based

EC50: 29.4 ± 12.8 µM
Structure (SMILES): O=C(O)CCCCCCCC(=O)O [NA]
